NC(=O)c1cccnc1Cl
solubility (mole fraction)
Conditions	in 1,4-dioxane	in 2-ethoxyethanol	in 2-methoxyethanol	in DMAc	in DMF	in ethanol	in ethylene glycol	in methanol	in methyl acetate	in water
278.15 K	–	0.0124	0.0205	0.132	0.0981	0.00303	0.00783	0.00747	0.00215	0.00081
283.15 K	–	0.0154	0.0246	0.141	0.107	0.00366	0.00946	0.00893	0.00263	0.00102
288.15 K	0.00632	0.0182	0.0293	0.152	0.115	0.00443	0.0114	0.0104	0.00331	0.00127
293.15 K	0.0077	0.0224	0.0352	0.163	0.126	0.00539	0.0136	0.0122	0.0041	0.00157
298.15 K	0.00958	0.0267	0.0413	0.175	0.137	0.00698	0.0167	0.0148	0.00506	0.00193
303.15 K	0.0118	0.0311	0.0478	0.187	0.149	0.00821	0.0201	0.0171	0.00587	0.00237
308.15 K	0.0136	0.0375	0.0542	0.199	0.161	0.0101	0.024	0.0204	0.00699	0.00291
313.15 K	0.0168	0.0437	0.0642	0.213	0.175	0.0124	0.0283	0.0238	0.00885	0.00351
318.15 K	0.02	0.0524	0.0747	0.227	0.188	0.0147	0.034	0.0278	0.0105	0.00437
323.15 K	0.0244	0.0615	0.0856	0.24	0.202	0.0178	0.0403	0.0324	0.0127	0.00546

— BigSolDB 2.1
